Laboratory results taken from patent US20150306096A1, “8'-HYDROXY-DIHYDROERGOTAMINE COMPOUNDS AND COMPOSITIONS” (MAP Pharmaceuticals, Inc., priority 2012, published 2015).
Like-named read-outs stand apart in the source and are kept apart here.

Columns and labels:
Adenosine A2a = target: T1, Adenosine A2a (Homo sapiens, UniProt P29274); test: cAMP HTRF assay; format: cell-based
T1 construct: expressed in transfected cells; host or cells: HEK293
Method: (§1) Additional receptor agonist/agonist activity assessments were performed using the 8′-OH DHE test compound. Table 12 contains a summary of the cell lines (CHO-K1/HEK293 transfected with relevant human receptor) and the assays performed to detect any agonist or antagonist activity.
(§2) Cells expressing the human recombinant receptor of interest were grown in media without antibiotic and detached by gentle flushing with PBS-EDTA (5 mM EDTA), recovered by centrifugation and resuspended in assay buffer (KRH: 5 mM KCl, 1.25 mM MgSO4, 124 mM NaCl, 25 mM HEPES, 13.3 mM glucose, 1.25 mM KH2PO4, 1.45 mM CaCl2, 0.5 g/L BSA). Dose response curves were performed in parallel with the reference compounds. For agonist tests (96-well plates), 12 μL of cells was mixed with 12 μL of the test 8′-OH DHE compound at increasing concentrations and then incubated for 30 minutes at RT. Lysis buffer was added and after one hour incubation, cAMP concentrations were determined according to the manufacturer specification with the HTRF kit. For antagonist tests (96-well plates), 12 μL of cells was mixed with 6 μL of the test 8′-OH DHE compound at increasing concentrations and then incubated for 10 minutes. […] Lysis buffer was added and after 1 hour incubation, cAMP concentrations were determined according to the manufacturer specification, with the HTRF kit. […]

Calcitonin (AM1/AM2) = test: cAMP HTRF assay; format: cell-based, human
Method: as §1, §2

[1] = system: Glutamate (mGlu3/mGlu5/mG1u7); test: Glutamate receptor aequorin / cAMP assays; format: cell-based, human; details: mGlu receptors
Method: Additional receptor agonist/agonist activity assessments were performed using the 8′-OH DHE test compound. Table 12 contains a summary of the cell lines (CHO-K1/HEK293 transfected with relevant human receptor) and the assays performed to detect any agonist or antagonist activity. […]
For agonist testing, 30 μL of cell suspension was mixed with 30 μL of the test 8′-OH DHE compound or reference agonist in a 384-well plate. The resulting emission of light was recorded using the FDSS 6000 luminometer. […] The resulting emission of light was recorded using the FDSS 6000 luminometer.
Cells expressing the human recombinant receptor of interest were grown in media without antibiotic and detached by gentle flushing with PBS-EDTA (5 mM EDTA), recovered by centrifugation and resuspended in assay buffer (KRH: 5 mM KCl, 1.25 mM MgSO4, 124 mM NaCl, 25 mM HEPES, 13.3 mM glucose, 1.25 mM KH2PO4, 1.45 mM CaCl2, 0.5 g/L BSA). […] Lysis buffer was added and after one hour incubation, cAMP concentrations were determined according to the manufacturer specification with the HTRF kit. […] Lysis buffer was added and after 1 hour incubation, cAMP concentrations were determined according to the manufacturer specification, with the HTRF kit. […]

Somatostatin (SST1~SST5) = test: GTPγS assay; format: biochemical, human; details: Somatostatin receptors
Method: as §1
Reagents used were the following: Assay buffer (20 mM HEPES, pH 7.4; 100 mM NaCl; 10 mg/mL saponin; 30 mM MgCl2); Membranes (recombinant human receptor membrane extracts were thawed on ice and diluted in assay buffer to give […] (10 μgμL) and kept on ice); GDP (diluted in assay buffer to give 30 μM solution (3 μM final concentration); beads (PVT-WGA (Amersham, RPNQ001), diluted in assay buffer at 25 mg/mL (0.25 mg/10 μL)); GTPγ^35S (Perkin Elmer, NEG030X), diluted in assay buffer to give 0.1 nM (final concentration); and ligand (agonist/antagonist diluted in assay buffer).
Membranes were mixed with GDP (1:1) and incubated for at least 15 minutes on ice. In parallel, GTPγ^35S was mixed with the beads (1:1) just before starting the reaction. […] The plates were then centrifuged for 10 minutes at 2,000 rpm and incubated at RT for 1 hour and counted for 1 min/well with a Perkin Elmer TopCount reader.

[2] = cited from earlier work

T1 sequence (P29274 whole entry): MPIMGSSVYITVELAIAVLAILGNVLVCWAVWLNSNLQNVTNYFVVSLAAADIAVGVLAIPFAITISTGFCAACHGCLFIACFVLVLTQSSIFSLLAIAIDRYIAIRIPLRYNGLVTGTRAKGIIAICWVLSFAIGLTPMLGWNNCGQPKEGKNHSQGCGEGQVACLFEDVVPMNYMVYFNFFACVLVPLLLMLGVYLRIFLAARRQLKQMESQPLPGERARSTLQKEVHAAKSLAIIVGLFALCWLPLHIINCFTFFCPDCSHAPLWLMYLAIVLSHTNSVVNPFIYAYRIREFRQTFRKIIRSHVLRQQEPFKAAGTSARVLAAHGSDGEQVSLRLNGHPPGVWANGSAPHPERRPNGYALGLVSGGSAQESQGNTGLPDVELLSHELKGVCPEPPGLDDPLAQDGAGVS

| SMILES | Activity (Agonism: EC50; Antagonism: IC50) (Adenosine A2a) | Activity (Agonism: EC50; Antagonism: IC50) (Calcitonin (AM1/AM2)) | Activity (Agonism: EC50; Antagonism: IC50) [1] | Activity (Agonism: EC50; Antagonism: IC50) (Somatostatin (SST1~SST5)) | fraction of dose extracted in the urine ([2]; IM administered dose) | bioavailability ([2]; IM) [%] | bioavailability ([2]; IN administration) | oral bioavailability ([2]; oral) |
| --- | --- | --- | --- | --- | --- | --- | --- | --- |
| CN1C[C@H](C(=O)N[C@]2(C)O[C@@]3(O)[C@@H]4CCC(O)N4C(=O)[C@H](Cc4ccccc4)N3C2=O)C[C@@H]2c3cccc4[nH]cc(c34)C[C@H]21 (some centres unmarked) [8′-OH DHE, 8′-Hydroxy-Dihydroergotamine] | Inactive | Inactive | Inactive | Inactive |  |  |  |  |
| CN1C[C@H](C(=O)N[C@]2(C)O[C@@]3(O)[C@@H]4CCCN4C(=O)[C@H](Cc4ccccc4)N3C2=O)C[C@@H]2c3cccc4[nH]cc(c34)C[C@H]21 [DHE, Dihydroergotamine] |  |  |  |  | 6-7% | 100 | about 40% | 1-3% |
